Data on one molecule can be found in patent US8318730B2, “Fused hetrocyclic compounds” (Synta Pharmaceuticals Corporation, priority 2003, dated 2012).

For one experiment, the system named is IL-12 production. Briefly: In vitro assay of Example 12: inhibition of IL-12 production in IFNγ/LPS- or IFNγ/SAC-stimulated cells, ELISA. The note with it: Homo sapiens; assay of Example 12; if more than one assay was performed, only the most active IC50 result is reported. Format: cell-based, human. The source says: The biological activities of a compound can be evaluated by a number of cell-based assays. One of such assays can be conducted using cells from human peripheral blood mononuclear cells (PBMC) or human monocytic cell line (THP-1). The cells are stimulated with a combination of human interferon-γ (IFNγ) and lipopolysaccharide or a combination of IFNγ and Staphylococcus aureus Cowan I in the presence of a test compound. The level of inhibition of IL-12 production can be measured by determining the amount of p70 by using a sandwich ELISA assay with anti-human IL-12 antibodies. IC50 of the test compound can then be determined. Specifically, PBMC or THP-1 cells are incubated with the test compound. Cell viability was assessed using the bioreduction of MTS [3-(4,5-dimethylthiazol-2-yl)-5-(3-carboxymethoxyphenyl)-2-(4-sulfophenyl)-2H-tetrazolium] (Promega, Madison, Wis.).
Staphylococcus aureus Cowan I (SAC) is obtained from Calbiochem (La Jolla, Calif.), and lipopolysaccharide (LPS, Serratia marscencens) is obtained from Sigma (St. Louis, Mo.). Human and mouse recombinant IFNγ are purchased from Boehringer Mannheim (Mannheim, Germany) and Pharmingen (San Diego, Calif.), respectively.
Human PBMC are isolated by centrifugation using Ficoll-Paque (Pharmacia Biotech, Uppsala, Sweden) and prepared in RPMI medium supplemented with 10% fetal calf serum (FCS), 100 U/mL penicillin, and 100 μg/mL streptomycin. PBMC are plated in wells of a 96-well plate at a concentration of 5×10^5 cells/well, and primed by adding IFNγ (30 U/mL) for 22 h and stimulated by adding LPS (1 μg/mL), or by adding IFNγ (100 U/mL) and then stimulated by adding SAC (0.01%). A test quinazoline compound is dissolved in DMSO, and added to wells of the 96-well plate. The final DMSO concentration is adjusted to 0.25% in all cultures, including the compound-free control. Human THP-1 cells are plated in wells, primed by adding IFNγ (100 U/mL) for 22 h and stimulated by adding SAC (0.025%) in the presence of different concentrations of the quinazoline compound. Cell-free supernatants are taken 18 h later for measurement of cytokines. Cell viability is assessed using the bioreduction of MTS. Cell survival is estimated by determining the ratio of the absorbance in compound-treated groups versus compound-free control.
The supernatant is assayed for the amount of IL-12p40, IL-12p70, or IL-10 by using a sandwich ELISA with anti-human antibodies, i.e., a Human IL-12 p40 ELISA kit from R&D Systems (Berkeley, Calif.), and a Human IL-12 p70 or IL-10 ELISA kit from Endogen (Cambridge, Mass.). Assays are based on the manufacturer's instructions.
The biological activities of quinazoline compounds are tested on human PBMC or THP-1 cells.
(ELISA stands for enzyme-linked immunosorbent assay.)

Experiment [1] has as its system adjuvant arthritis (AA) in female Lewis rats. Briefly: Treatment of adjuvant arthritis in rats. As to conditions: oral administration once a day for 12 days; dose-dependent. Format: in vivo, rat. Here is the method:
Adjuvant arthritis (AA) is induced in female Lewis rats by the intracutaneous injection (base of the tail) of 0.1 mL of a 10 mg/mL bacterial suspension made from ground, heat-killed Mycobacterium tuberculosis H37Ra suspended in incomplete Freund's adjuvant. Rats are given a test compound orally once a day for 12 days, starting the day following the induction. The development of polyarthritis is monitored daily by macroscopic inspection and assignment of an arthritis index to each animal, during the critical period (days 10 to 25 post-immunization).
The intensity of polyarthritis scored according to the following scheme: (a) Grade each paw from 0 to 3 based on erythema, swelling, and deformity of the joints: 0 for no erythema or swelling; 0.5 if swelling is detectable in at least one joint; 1 for mild swelling and erythema; 2 for swelling and erythema of both tarsus and carpus; and 3 for ankylosis and bony deformity. Maximum score for all 4 paws is thus 12. (b) Grade for other parts of the body: for each ear, 0.5 for redness and another 0.5 if knots are present; 1 for connective tissue swelling (saddle nose); and 1 for the presence of knots or kinks in the tail. The highest possible arthritic index is […].

Experiment [2] concerns DNBS-induced distal colitis in Wistar derived rats. Briefly: Dinitrobenzene sulfonic acid-induced inflammatory bowel syndrome model rats. Format: in vivo, rat. As to conditions: oral, 24 and 2 hours before DNBS instillation and then daily for 5 days. Here is the method:
Wistar derived male or female rats weighing 200±20 g and fasted for 24 hours are used. Distal colitis was induced by intra-colonic instillation of 2,4-dinitrobenzene sulfonic acid (DNBS, 25 mg in 0.5 mL ethanol 30%) after which air (2 mL) is gently injected through the cannula to ensure that the solution remained in the colon. A test compound and/or vehicle is administered orally 24 and 2 hours before DNBS instillation and then daily for 5 days. One control group is similarly treated with vehicle alone while the other is treated with vehicle plus DNBS. The animals are sacrificed 24 hours after the final dose of test compound administration and each colon is removed and weighed. Colon-to-body weight ratio is then calculated for each animal according to the formula: Colon (g)/BW×100. The “Net” increase in ratio of Vehicle-control+DNBS group relative to Vehicle-control group is used as a base for comparison with test substance treated groups and expressed as “% Deduction.” Fused heterocyclic compounds of this invention (e.g., Compound 12) reproducibly have about 30% deduction. A 30% or more reduction in colon-to-body weight ratio, relative to the vehicle treated control group, is considered significant.

In experiment [3] the test system is colitis in C.B-17 SCID mice. As to the kind of experiment: CD4+ CD45Rb high T cell-reconstituted SCID colitis model mice. Format: in vivo, mouse. The method, then:
Spleen cells are prepared from normal female BALB/c mice. For cell purification, the following anti-mouse antibodies are used to label non-CD4^+ T cells: B220 (RA3-6B2), CD11b (Ml/70), and CD8a (53-6.72). All antibodies are obtained from BioSource (Camarillo, Calif.). M450 anti-rat IgG-coated magnetic beads (Dynal, Oslo, Norway) are used to bind the antibodies and negative selection is accomplished using an MPC-1 magnetic concentrator. The enriched CD4^+ cells are then labeled for cell sorting with FITC-conjugated CD45RB (16A, Pharmingen, San Diego, Calif.) and PE-conjugated CD4 (CT-CD4, Caltag, Burlingame, Calif.). CD4^+ CD45RB^high cells are operationally defined as the upper 40% of CD45Rb-staining CD4^+ cells and sorted under sterile conditions by flow cytometry. Harvested cells are resuspended at 4×10^6/mL in PBS and injected 100 μL intraperitoneally into female C.B-17 SCID mice. Fused heterocyclic compounds of this invention and/or vehicle is orally administered once a day, 5 days per week, starting the day following the transfer. The transplanted SCID mice are weighed weekly and their clinical condition is monitored.
Colon tissue samples are fixed in 10% buffered formalin and embedded in paraffin. Sections (4 μm) collected from ascending, transverse, and descending colon are cut and stained with hematoxylin and eosin. The severity of colitis is determined based on histological examination of the distal colon sections, whereby the extent of colonic inflammation is graded on a scale of 0-3 in each of four criteria: crypt elongation, cell infiltration, depletion of goblet cells, and the number of crypt abscesses.
LP lymphocytes are isolated from freshly obtained colonic specimens. After removal of payer's patches, the colon is washed in Ca/Mg-free HBSS, cut into 0.5 cm pieces and incubated twice in HBSS containing EDTA (0.75 mM), DTT (1 mM), and antibiotics (amphotericin 2.5 μg/mL, gentamicin 50 μg/mL from Sigma) at 37° C. for 15 min. Next, the tissue is digested further in RPMI containing 0.5 mg/mL collagenase D, 0.01 mg/mL DNase I (Boehringer Manheim), and antibiotics at 37° C. LP cells are then layered on a 40-100% Percoll gradient (Pharmacia, Uppsala, Sweden), and lymphocyte-enriched populations are isolated from the cells at the 40-100% interface.
To measure cytokine production, 48-well plates are coated with 10 μg/mL murine anti-CD3ε antibody (145-2C11) in carbonate buffer (PH 9.6) overnight at 4° C. 5×10^5 LP cells are then cultured in 0.5 ml of complete medium in precoated wells in the presence of 1 μg/mL soluble anti-CD28 antibody (37.51). Purified antibodies are obtained from Pharmingen. […] Murine IFNγ is measured using an ELISA kit from Endogen (Cambridge, Mass.), according to the manufacturer's instructions.

As to `Cc1cccc(-c2ccc3nc(OCCN4CCOCC4)nc(N4CCOCC4)c3c2)c1` [Compound 12, 4-Morpholin-4-yl-2-(2-morpholin-4-yl-ethoxy)-6-m-tolyl-quinazoline], the IC50 in the experiment on IL-12 production worked out at 189 nM. In experiment [1], the arthritic score result is reported as “reproducibly reduces the arthritic score” and the development of polyarthritis entry is “delayes the development of polyarthritis”. For the same molecule, in experiment [2], the “% Deduction (colon-to-body weight ratio)” value was “about 30%”. Further, the “IFNγ production by LP cells in response to anti-CD3 and anti-CD28 antibody” value in experiment [3] (ex vivo LP cells from treated mice) is “greatly diminishes the production”. Further, the colon-to-body weight ratio entry in experiment [3] (oral administration) was “attenuation”. Also, the “colonic inflammation (histological analysis)” value in experiment [3] (oral administration, compared to vehicle control) is “reduce colonic inflammation”. The “colonic inflammation, suppressive effect” value in experiment [3] (oral, dose of 10 mg/kg) was “substantial reduction”.

For orientation: IC50 means the concentration that inhibits the measured activity by half.
